Reference: patent publication US20100104628A1, “METHOD OF TREATING NEUROBLASTOMA” (priority 2007, published 2010)
Where two headings read alike, the source gives them in different places.

Assays:
SK—N-BE(2c) (high NET) = experiment: Glutathione depletion in vitro, SK-N-BE(2c); assay type: cell-based
Experimental: The NB cell line SK—N-BE(2c) (high net) was treated with MIBG, MIBG-disulfide dimer (MIGB-S—S-MIBG), chloromethyl-MIBG (cmMIBG), and BSO. For comparison, the human breast cancer line MCF7 (no NET) was treated with chloromethyl-MIBG and BSO. At specific times, intracellular glutathione in drug-treated cells was determined relative to that in untreated cells (control).
SK—N-BE(2c) (high NET) cells were treated with a single concentration of chloromethyl-MIBG (25 μM at t=0). Glutathione concentrations in treated and untreated cells were measured at t=0.5, 1, 2, 3 and 4 hrs. Glutathione levels in drug-treated cells progressively fell, with a concentration 50% that of control at t 4 hrs (FIG. 10B).
Cells were exposed to 5 μM chloromethyl-MIBG (cmMIBG), 25 μM BSO and a combination of 5 μM chloromethyl-MIBG+25 μM BSO (both) for 7 hrs. Compared to controls, chloromethyl-MIBG alone depleted glutathione by about 30% in SK—N—Be(2c) cells and 8% in MCF7. BSO, as expected, depleted MCF7 and SK—N—Be(2c) by similar amounts (42 and 54% of controls, respectively). In combination studies, chloromethyl-MIBG+BSO depleted levels by about 85% in the SK—N—Be(2c) cells and had much less effect on the MCF7 cells with glutathione reduced by 49% relative to controls.

[1] = Stability / reaction kinetics by proton NMR (half-life); assay type: physicochemical; conditions: 37° C., pH 7.4, BisTris buffer, 5% DMSO
Excerpt: Proton NMR was used to determine the half-lives for chloro- and bromomethyl-MIBG (Table 1). These analogs react with nucleophiles via an SN2 mechanism; therefore, the rate of the reaction depends on the strength and concentration of the nucleophile as well as the nature of the leaving group. Thus, the half-lives of the analogs are predictably longer in buffer than they are in buffer with added glutathione (a relatively strong nucleophile) and, under the same conditions, the bromo analog (better leaving group) reacts faster than the chloro analog.

SK-N-BE(2c) (NET ++++) = experiment: cells; assay type: cell-based
MCF7 (NET 0) = experiment: in vitro; assay type: cell-based, human
in vitro = assay type: cell-based, human; conditions: human, 24 hr assay, single agent, 1% DMSO; read-out: Cytotoxicity IC50
[2] = 48 hr assay (24 h exposure + 24 h recovery), Table 3, read-out: Cytotoxicity IC50

In the case of N=C(N)NCc1ccc(CSSCc2ccc(CNC(=N)N)cc2I)c(I)c1 [MIBG-disulfide dimer], the “effect on glutathione levels” value (SK—N-BE(2c) (high NET); 5 μM) is reported as “a transient loss of glutathione was observed”, the “time for glutathione to return to pre-treatment levels” value (SK—N-BE(2c) (high NET); 5 μM) is reported as no more than 8 h and the “effect on glutathione levels and cell viability” value (SK—N-BE(2c) (high NET); higher concentrations (25 and 100 microM), up to 8 hrs) is reported as “extensive loss of glutathione and cell viability with no recovery”.
In the case of N=C(N)NCc1ccc(CBr)c(I)c1 [Bromomethyl-MIBG], the Half-life [1] is reported as 42.5 ± 0.7 min and the “Half-life w/10 eq GSH” value ([1]; 10 eq GSH) is reported as less than 0.083 min.
Work on CCSSCc1ccc(CNC(=N)N)cc1I [MIBG-SS-ethyl] yielded an IC50 (SK-N-BE(2c) (NET ++++); [2]) of 27.4 ± 4.09 µM and an IC50 (MCF7 (NET 0); [2]) of 24.2 ± 7.21 µM.
In the case of N=C(N)NCc1ccc(CSC[C@H](NC(=O)CC[C@H](N)C(=O)O)C(=O)NCC(=O)O)c(I)c1 [MIBG-S-Glutathione], the IC50 (SK-N-BE(2c) (NET ++++)) is reported as 390 µM and the IC50 (MCF7 (NET 0)) is reported as greater than 1000 µM.
With ClCc1ccccc1 [chloromethyl-benzene, benzylchloride] the IC50 (SK-N-BE(2c) (NET ++++); 24 hr assay, single agent, 1% DMSO, read-out: Cytotoxicity IC50) was 172 ± 31 µM and the IC50 at 24 h (in vitro) was 390 ± 77 µM.
